How the values were obtained:
[1] = tested on: 5xFAD mice; experiment: Plasma NfL in 5xFAD mice (NF-light ELISA); assay type: in vivo, mouse; details: compared to saline-treated transgenic mice
Procedure: HCQ nano (poly(L-lysine succinylated)-HCQ, or PLS-HCQ) preparation: 2.5 mL of saline were added to each vial of lyophilized material on each dose day and vortexed briefly to mix. Fresh vials were prepared daily. Solution was pale yellow in color and was protecedt from light. Remaining material was discardedafter animals were successfully dosed each day. […] 100 mg/kg, i.p. injection 10 μL/g b.w.
TUDCA preparation: Dissolved in saline; treatment dosage 500 mg/kg; i.p. injection 10 μL/g b.w.
Animal management: Animals were housed in individual ventilated cages on standardized rodent bedding supplied by Rettenmaier. Each cage contained a maximum of five mice. The temperature in the keeping room was maintained between 20 to 24° C. and the relative humidity was maintained between 45 to 65%. Animals were housed under a constant light-cycle (12 hours light/dark). […]
The NF-light® (Neurofilament-light) ELISA 10-7001 CE from UmanDiagnostics was used for analysis. The following samples were analyzed: terminal CSF, terminal blood plasma as well as all 4 timepoints from the in vivo bleedings from 6 animals per groups (3 groups; 18 animals, 108 samples in total). Samples were diluted (1:3 for plasma, 1:35 for CSF) in assay buffer and analyzed according to the manufacturers protocol. CSF and in vivo samples are analyzed in single replicates only, due to limited sample volume. […]

[2] = tested on: hippocampal CA1 synapses of APP/PS1 mice; experiment: Late long-term potentiation, field recordings in hippocampal slices; set-up: species or system mouse; details: for impaired late-LTP: APP/PS1 slices
[3] = WT and APP/PS1 before and after HCQ

| Compound | peak in plasma NfL levels ([1]; 100 mg/kg i.p.) | impaired late-LTP ([2]; 25 μM HCQ sulphate, bath-applied 60 min) | impaired late-LTP ([2]; 50 μM HCQ sulphate) | input-output (I/O) curves [2, 3] | paired pulse ratio (PPR) [2, 3] | L-LTP in wild type slices ([2]; wild type mice, 50 μM HCQ, vs untreated wild type) | peak plasma NfL levels ([1]; 500 mg/kg i.p.) | LTP in APP/PS1 mice ([2]; 100 μM TUDCA) |
| --- | --- | --- | --- | --- | --- | --- | --- | --- |
| CCN(CCO)CCCC(C)Nc1ccnc2cc(Cl)ccc12 (centres unmarked) [HCQ, hydroxychloroquine] | partially lowered | partially rescued | fully rescued | did not show any significant differences | did not show a significant difference | does not alter L-LTP | – | – |
| C[C@H](CCC(=O)NCCS(=O)(=O)O)[C@H]1CC[C@H]2[C@@H]3[C@@H](O)C[C@@H]4C[C@H](O)CC[C@]4(C)[C@H]3CC[C@]12C [TUDCA, tauroursodeoxycholic acid] | – | – | – | – | – | – | partially lowered | no longer induced LTP |
